Data from patent publication US20240123076A1, “UNSATURATED DENDRIMERS COMPOSITIONS, RELATED FORMULATIONS, AND METHODS OF USE THEREOF” (The Board of Regents of The University of Texas System, priority 2021, published 2024).
“Also recorded” adds a separate entry of the source.

What was measured:
IGROVI cells = experiment: Cellular uptake and intracellular trafficking of Cy5-labeled mRNA LNPs (confocal imaging); type: cell-based; conditions: for co-localization of Cy5 mRNA with lysosomes: 4 h and 24 h after incubation; for cellular uptake (internalization) of Cy5 Luc mRNA LNPs: at 4 hours and 24 hours
Procedure: Flash chromatography was performed on a Teledyne Isco CombiFlash Rf-200i chromatography system equipped with UV-Vis and evaporative light scattering detectors (ELSD) or manually using 60 Å, 40-63 um Silica (Sorbtech) or activated, neutral Aluminum Oxide (Sigma-Aldrich). Particle sizes and PDI were measured by Dynamic Light Scattering (DLS) using a Malvern Zetasizer Nano ZS (He-Ne laser, λ=632 nm). Confocal microscopy was conducted using a Zeiss LSM-710 laser scanning confocal microscope and data analyzed with the Zeiss LSM-710 software.
Cellular uptake and intracellular trafficking was further examined, in vitro experiments were performed using Cy5-labeled mRNA LNPs. […] The progression of Cy5 mRNA was further tracked from the cell membrane to endosomes to lysosomes and quantified co-localization of Cy5 mRNA with lysosomes. […] The overall results connected chemical structure to factors including cellular uptake, endosomal escape, and intracellular trafficking.

C57BL/6 mice [1] = experiment: Biodistribution of Cy5 Luc mRNA LNPs (ex vivo imaging); type: in vivo; conditions: IV, 0.25 mg/kg, 6 hours, ex vivo organs
C57BL/6 mice [2] = experiment: In vivo luciferase mRNA delivery (bioluminescence imaging, liver); conditions: 4-component LNP, tail vein, 0.25 mg/kg Luc mRNA, 6 h
Procedure: Ionizable lipid(s), DOPE, cholesterol, DMG-PEG2k were dissolved in ethanol as noted below in S2, and the Luc mRNA was diluted in 10 mM citric acid-sodium citrate buffer (pH 4.4) at the desired dosage. The lipid mixture and nucleic acid dilution were rapidly combined at a volumetric ratio of 3:1 nucleic acid:lipid mix. The nanoparticles were dialyzed against 1×PBS in Pur-A-Lyzer midi dialysis chambers (Sigma-Aldrich, WMCO 3.5 kDa) for 2 hours prior to injection.
All experiments were approved by the Institutional Animal Care & Use Committee (IACUC) of The University of Texas Southwestern Medical Center and were consistent with local, state and federal regulations as applicable. Female C57BL/6 mice (18-20 g) were injected with LNP formulations via tail vein injection (5 ug of mRNA, 0.25 mg/kg). After 6 h, the luciferase expression was evaluated by live animal bioluminescence imaging. Animals were anesthetized under isofluorane, and D-Luciferin (150 mg/kg) was introduced by intraperitoneal injection. Then, the luciferase activity was imaged, and ex vivo imaging was performed on systemic organs after resection on an IVIS Lumina system (Perkin Elmer). The images were processed using Living Image analysis software (Perkin Elmer).

[3] = Lipid fusion assay (FRET); conditions: PBS pH 5.5, 37° C., 5 min
Procedure: Endosome mimicking anionic liposomes were prepared by mixing DOPS:DOPC:DOPE:NBD-PE:N-Rh-PE (25:25:48:1:1 molar ratio) in CHCl3 at a fixed total lipid concentration of 1 mM. Afterwards, the film was created by rotary evaporation of the solution, followed by 2 h of vacuum drying to produce a thin lipid film.
LNPs were formulated with the in vivo method. 100 uL PBS (pH 5.5) was added to each well in a black 96-well plate (n=3 per sample), and 1 μL of endosome mimicking anionic liposomes (1 mM) was added to each well. Endosome mimicking anionic liposomes in PBS served as the negative control (Fmin), and the endosome mimic lipids incubated with 2% Triton-X in PBS solutions were set as positive control (Fmax). 10 μL of LNPs being tested were added to the wells (n=3). After incubating at 37° C. for 5 min., fluorescence measurements (F) were conducted on a microplate reader at Ex/Em=465/520 nm. The lipid fusion (%) was calculated as (F−Fmin)/(Fmax−Fmin)*100%.
Fluorescence resonance energy transfer (FRET)-based assay was employed to determine the LNP's ability to disrupt and fuse with the endosomal membrane (FIG. 4). DOPE-conjugated FRET probes (NBD-PE and N—Rh-PE) were formulated into endosome-mimicking nanoparticles. NBD is normally quenched by the rhodamine, but the NBD signal would rise if disruption of the membrane occurred. […]

IGROV-1 cells = experiment: In vitro luciferase expression of Luc mRNA LNPs; type: cell-based; conditions: IGROV-I cells, 25 ng mRNA per well, 24 h; lipid:DOPE:cholesterol:DMG-PEG2k 15:15:30:3
Procedure: Ionizable lipid, DOPE, cholesterol, DMG-PEG2k were dissolved in ethanol as noted below (S2, base formulation). Firefly Luciferase (Luc) mRNA was diluted in 10 mM citric acid-sodium citrate buffer (pH 4.4). The lipid mixture and nucleic acid solution were rapidly combined at a volumetric ratio of 3:1 nucleic acid:lipid mix. Afterwards, the LNP formulations were diluted with 1×PBS to 1 ng/uL concentration.
IGROV-1 cells were seeded into white 96-well plates at a density of 1×10^4 cells per well the day before transfection with media. Day of transfection, the media was replaced with 200 μL of fresh media. Then, 25 μL of the Luc mRNA formulations were added with a fixed dose of 25 ng mRNA per well. After incubation for another 24 hours, ONE-Glo+ Tox kits (Promega) were used to detect Luc mRNA expression and cytotoxicity.

Row | SMILES | co-localization of Cy5 mRNA with lysosomes (IGROVI cells) | cellular uptake (internalization) of Cy5 Luc mRNA LNPs (IGROVI cells) | biodistribution of Cy5 Luc mRNA (ROI values) (C57BL/6 mice [1]) | also measured
1 | CCCCCCCCSC(C)C(=O)OCCOC(=O)CCN(CCCN(C)CCCN(CCC(=O)OCCOC(=O)C(C)SCCCCCCCC)CCC(=O)OCCOC(=O)C(C)SCCCCCCCC)CCC(=O)OCCOC(=O)C(C)SCCCCCCCC (centres unmarked) [4A3-SC8, reference compound] | reduced colocalization with lysosomes | effectively internalized | no statistical difference | –
2 | CC/C=C\C/C=C\CSC(C)C(=O)OCCOC(=O)CCN(CCCN(C)CCCN(CCC(=O)OCCOC(=O)C(C)SC/C=C\C/C=C\CC)CCC(=O)OCCOC(=O)C(C)SC/C=C\C/C=C\CC)CCC(=O)OCCOC(=O)C(C)SC/C=C\C/C=C\CC (centres unmarked) [4A3-8/2] | – | – | – | Luc mRNA expression in vivo (mRNA delivery) (C57BL/6 mice [2]): lower Luc expression compared to its alkyl partner
3 | CC(C)=CCCC(C)CCSC(C)C(=O)OCCOC(=O)CCN(CCCN(C)CCCN(CCC(=O)OCCOC(=O)C(C)SCCC(C)CCC=C(C)C)CCC(=O)OCCOC(=O)C(C)SCCC(C)CCC=C(C)C)CCC(=O)OCCOC(=O)C(C)SCCC(C)CCC=C(C)C (centres unmarked) [4A3-Cit] | reduced colocalization with lysosomes | effectively internalized | no statistical difference; also recorded: did not change the biodistribution | Luc mRNA expression in vivo (mRNA delivery) (C57BL/6 mice [2]; 0.25 mg/kg): performed better than 4A3-Ne; also recorded: highest efficacy; lipid fusion with the model endosomal membrane [3]: efficacious; also recorded: highest lipid fusion ability; speed of internalization of Cy5 Luc mRNA LNPs (IGROVI cells; at 4 hours, versus saturated 4A3-SC8 LNPs): internalizing slightly faster
4 | C/C=C/CCCSC(C)C(=O)OCCOC(=O)CCN(CCCN(C)CCCN(CCC(=O)OCCOC(=O)C(C)SCCC/C=C/C)CCC(=O)OCCOC(=O)C(C)SCCC/C=C/C)CCC(=O)OCCOC(=O)C(C)SCCC/C=C/C (centres unmarked) [4A3-4T] | – | – | – | Luc mRNA expression (in vitro Luc mRNA delivery) (IGROV-1 cells): most potent
